This is an account of results in PMC10531311, “Anti-Inflammatory Activities of 8-Benzylaminoxanthines Showing High Adenosine A2A and Dual A1/A2A Receptor Affinity” (International Journal of Molecular Sciences, 2023).

Structures are written as SMILES. Where two headings read alike, the source gives them in different places. Marks after values point to notes of the source that are not given here. Bounds are passed on as bounds.

For one series, the target named is T1, human MAO B (Homo sapiens, UniProt P27338).
T1 sequence (P27338 1-520): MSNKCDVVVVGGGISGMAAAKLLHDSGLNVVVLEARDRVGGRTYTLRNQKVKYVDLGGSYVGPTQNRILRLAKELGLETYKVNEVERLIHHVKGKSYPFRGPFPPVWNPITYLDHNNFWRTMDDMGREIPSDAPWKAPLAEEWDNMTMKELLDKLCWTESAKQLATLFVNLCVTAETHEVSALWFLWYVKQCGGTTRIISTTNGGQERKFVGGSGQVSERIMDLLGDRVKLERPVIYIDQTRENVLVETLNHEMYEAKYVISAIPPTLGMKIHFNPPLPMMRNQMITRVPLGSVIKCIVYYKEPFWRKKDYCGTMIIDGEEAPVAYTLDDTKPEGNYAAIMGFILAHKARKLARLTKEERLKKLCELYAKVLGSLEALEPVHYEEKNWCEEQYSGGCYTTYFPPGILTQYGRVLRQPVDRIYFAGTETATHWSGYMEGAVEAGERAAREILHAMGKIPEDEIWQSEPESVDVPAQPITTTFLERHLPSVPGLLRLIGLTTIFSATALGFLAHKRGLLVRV
Nature of the series: Human MAO B inhibition, fluorometric method. It is filed as biochemical. As to conditions: mean of two independent experiments, read-out: % of hMAO B Inhibition at 1 µM. As to the method:
The compounds were tested twice in duplicates at a concentration of 1 μM by fluorometric method as previously described. Paratyramine (200 μM) was used as a substrate for the enzyme. Safinamide (1 μM; reversible) and rasagiline (1 μM; irreversible) were used as reference inhibitors.

A further series concerns HepG2 cells. Nature of the series: Hepatotoxicity, MTS cell viability. In kind it is cell-based, human. As to conditions: 0.098 μM to 100 μM, 48 h. As to the method:
Drug safety is a critical step in the process of drug development. […] In our studies, neurotoxicity and hepatotoxicity were evaluated in SH-SY5Y and HepG2 cells, respectively. The compounds were tested at 11 concentrations from 0.098 μM to 100 μM (see Figure 5). Cell viability was assessed after incubation for 24 h with the SH-SY5Y line and for 48 h with the HepG2 line.
To evaluate neurotoxicity and hepatotoxicity, the human neuroblastoma cell line SH-SY5Y (ATCC® no. CRL-2266™) and hepatoma cell line HepG2 (ATCC® no. HB-8065™) were used, respectively. The cells (SH-SY5Y: 5 × 10^3 cells/100μL/well and HepG2: 7 × 10^3 cells/100 μL/well) were seeded in transparent 96-well plates (Nunc) in DMEM supplemented with 10% FBS and cultured overnight. The next day, the medium was changed to medium containing dimethylsulfoxide (DMSO < 0.1%, vehicle control) or an increasing concentration of compounds MZ-1483 (19), MZ-1490 (22) and MZ-1495 (24) ([…]–100 × 10^−6 M). To perform dose-response analysis, two-fold serial dilutions (11 points) were prepared. Treatment with compounds was performed for 48 h. After the incubation time, the cell viability was examined using an MTS-based [3-(4,5-dimethylthiazol-2-yl)-5-(3-carboxymethoxyphenyl)-2-(4-sulfophenyl)-2 H tetrazolium] CellTiter96® AQueous One Solution Cell Proliferation Assay (Promega, Madison, WI, USA) following the manufacturer’s protocol. Briefly, 20 μL of MTS solution was pipetted into each well containing 100 μL of culture or culture medium (negative control) and incubated at 37 °C for 1 h. After incubation time, formazan product turnover absorbance was measured at 490 nm using the microplate reader (Tecan Spark®, Tecan Group Ltd., Maennedorf, Switzerland). A reference wavelength of 630 nm was used.

Series [1] is described as follows: PAMPA blood brain barrier permeability. It is filed as in vitro ADME. As to the method: The ability of compounds, especially those intended to act in the CNS, to penetrate the blood-brain barrier (BBB) is an important property to consider in the initial stages of drug candidate screening. The PAMPA assay is a commonly used test to assess the passive permeation of the BBB [17]. In our study, caffeine was used as a highly permeable compound. […] After 5 h of incubation at room temperature, the results were analyzed by LC-MS, and the permeability coefficients (Pe) were calculated.
For permeability evaluation, a PAMPA Gentest™ pre-coated […] system, provided by Corning (Tewksbury, MA, USA), was used. The precise procedure was previously described. The permeability coefficient Pe was calculated based on the given equations. Concentrations of the tested compounds in the apical and basolateral wells were determined by LC/MS analysis using an internal standard.

The subject of series [2] is carrageenan-induced paw edema in rats. Nature of the series: Carrageenan-induced paw edema test. It is filed as in vivo, Wistar rats. As to conditions: 20 mg/kg ip; for Change in Edema Volume 1 h / inhibition of edema, first hour: 1 h; for Change in Edema Volume 2 h / inhibition of edema, second hour: 2 h; for Change in Edema Volume 3 h / inhibition of edema, third hour: 3 h. Here is the method:
The carrageenan test is used to evaluate the anti-inflammatory effect, as the injection of this compound into the hind paw of an animal induces long-lasting edema. The aim of the present study was to evaluate the anti-inflammatory (antiedematous) activity of the compounds tested: 19, 22 and 24. The compounds were administered at a dose of 20 mg/kg of body weight (bw).
The in vivo experiments were carried out on male albino Swiss mice weighing 18–26 g and male Wistar rats weighing 150–180 g. The animals were housed in constant temperature facilities exposed to a 12:12 light-dark cycle and maintained on a standard pellet diet and tap water given ad libitum. The control and experimental groups consisted of 6–8 animals each. The investigated compounds were intraperitoneally (ip) administered in the form of a suspension in 0.5% methylcellulose. Control animals received the equivalent volume of solvent. All procedures were conducted according to the guidelines of ICLAS (International Council on Laboratory Animals Science) and were approved by the Local Ethics Committee of the Jagiellonian University in Kraków.
Rats were divided into four groups, one of them being the control. In order to produce inflammation, 0.1 mL of 1% carrageenan solution in water was injected into the hind paw subplantar tissue of rats, according to the modified method of C. A. Winter and P. Lence. […] Prior to the administration of test substances, paw diameters were measured by dividers and recorded. The investigated compounds were administered at a dose of 20 mg/kg, ip (as a suspension in methylcellulose), prior to carrageenan injection. […] After these administrations, paw diameters were measured at 1, 2 and 3 h. The edema % and edema inhibition % were calculated according to the formulas given below. Edema% = (N′ × 100)/N Edema inhibition% = (N – N′ × 100)/N
N: Paw diameters measured 1, 2 and 3 h after injection of carrageenan to the control group—paw diameters at the beginning.
N′: Paw diameters measured 1, 2 and 3 h after injection of carrageenan to the test groups—paw diameters at the beginning.
A general note: Carrageenan injected into the paw causes an acute inflammation.

The mark [3] stands for this setting: 100 μM in PBS, 5 h, room temperature, triplicate.
Where [4] appears, read: 100 μM in PBS, 5 h, room temperature, triplicate, read-out: Pe ± SD.

A word on the inhibition: it is the percentage by which the read-out fell short of the control. Turning to `C#CCn1c(=O)c2c(nc(NCc3ccccc3Cl)n2C)n(C)c1=O` [compound 19, 8-((2-Chlorobenzyl)amino)-3,7-dimethyl-1-(prop-2-yn-1-yl)-3,7-dihydro-1H-purine-2,6-dione], the inhibition at 1 µM on human MAO B was 6%. Besides, the “hepatotoxicity, cell viability (in words)” value (“hepatotoxicity … (in words)” below) in the series with HepG2 cells is reported as “high safety profile”. Also, the “Drug Retention” value in series [1] was determined as 51.78%. Also, the “Pe ± SD” value in series [1] (setting [3]) is “greater than 1.5 10^−6 cm/s”. Moreover, the Papp at 5 h, 100 μM in series [1] (setting [4]) came to 3.13 ± 0.82 ×10⁻⁶ cm/s. Moreover, the Papp at 5 h, 100 μM in series [1] (read-out: Permeable) was at least 1.5 ×10⁻⁶ cm/s. Further, in series [2], the “Change in Edema Volume 1 h” value stood at 0.56 ± 0.13 mL; the “inhibition of edema, first hour” value is 28.2%; the “Change in Edema Volume 2 h” value is 0.72 ± 0.09 mL; the “inhibition of edema, second hour” value came to 35.7%. Further, in series [2], the “Change in Edema Volume 3 h” value is 1.10 ± 0.21 mL and the “inhibition of edema, third hour” value was 17.3%.

In the case of `C#CCn1c(=O)c2c(nc(NCc3c(F)cccc3Cl)n2C)n(C)c1=O` [compound 22, 8-((2-Chloro-6-fluorobenzyl)amino)-3,7-dimethyl-1-(prop-2-yn-1-yl)-3,7-dihydro-1H-purine-2,6-dione], the inhibition at 1 µM on human MAO B was determined as 7%. Further, in the series with HepG2 cells, the “hepatotoxicity … (in words)” value is reported as “high safety profile”. In series [1], the “Drug Retention” value turned out to be 68.62%. In addition, the “Pe ± SD” value in series [1] (setting [3]) is 0.37 10^−6 cm/s. The Papp at 5 h, 100 μM in series [1] (setting [4]) came to 0.37 ± 0.01 ×10⁻⁶ cm/s. Besides, the Papp at 5 h, 100 μM in series [1] (read-out: Permeable) is at most 1.5 ×10⁻⁶ cm/s. Also, in series [2], the “Change in Edema Volume 1 h” value was 0.49 ± 0.08 mL; the “inhibition of edema, first hour” value came out at 37.1%; the “Change in Edema Volume 2 h” value was found to be 0.91 ± 0.05 mL; the “inhibition of edema, second hour” value came out at 18.7%. In series [2], the “Change in Edema Volume 3 h” value was determined as 0.92 ± 0.06 mL and the “inhibition of edema, third hour” value is 30.8%.

Turning to `C#CCn1c(=O)c2c(nc(NCc3cccc(Br)c3)n2C)n(C)c1=O` [compound 24, 8-((3-Bromobenzyl)amino)-3,7-dimethyl-1-(prop-2-yn-1-yl)-3,7-dihydro-1H-purine-2,6-dione], the inhibition at 1 µM at human MAO B is 10%. Also, the “hepatotoxicity … (in words)” value with HepG2 cells is given as “high safety profile”. Besides, in series [1], the “Drug Retention” value turned out to be 93.30%. In addition, in series [1] (setting [3]), the “Pe ± SD” value is on record as 0.89 10^−6 cm/s. The Papp at 5 h, 100 μM in series [1] (setting [4]) amounted to 0.89 ± 0.71 ×10⁻⁶ cm/s. Besides, in series [1] (read-out: Permeable), the Papp at 5 h, 100 μM is at most 1.5 ×10⁻⁶ cm/s. For the same compound, in series [2], the “Change in Edema Volume 1 h” value was 0.38 ± 0.02 ^a mL; the “inhibition of edema, first hour” value is on record as 51.2%; the “Change in Edema Volume 2 h” value is listed as 0.63 ± 0.14 ^a mL; the “inhibition of edema, second hour” value was found to be 43.8%. Besides, in series [2], the “Change in Edema Volume 3 h” value is 0.69 ± 0.01 ^b mL and the “inhibition of edema, third hour” value is reported as 48.1%.
